{"source": "ChEMBL document CHEMBL1136095", "about": "“Pyrazole-O-glucosides as novel Na(+)-glucose cotransporter (SGLT) inhibitors” (2003)", "key": {"Rattus norvegicus [1]": {"system": "Rattus norvegicus", "assay": "Urinary glucose excretion in Wistar rat after intravenous administration (3 mg/kg)", "type": "functional, Urine"}, "Rattus norvegicus [2]": {"species_on_record": "Rattus norvegicus", "assay": "Na+ -glucose co-transporter (SGLT) inhibitory activity against [C14]-glucose transport in BBMV's of rat kidney at compound concentration of 100 uM", "type": "functional"}, "Rattus norvegicus [3]": {"species_on_record": "Rattus norvegicus", "assay": "Na+ -glucose co-transporter (SGLT) inhibitory activity against [C14]-glucose transport in BBMV's of rat kidney at compound concentration of 100 uM: Not active", "type": "functional"}, "Rattus norvegicus [4]": {"species_on_record": "Rattus norvegicus", "assay": "Na+ -glucose co-transporter (SGLT) inhibitory activity against [C14]-glucose transport in BBMV's of rat kidney at compound concentration of 10 uM"}}, "note": "Calls of active or inactive are those of the source. The rule behind the calls is not given here."}
{"smiles": "CCc1ccc(Cc2c(C(F)(F)F)n[nH]c2O[C@@H]2O[C@H](C(=O)O)[C@@H](O)[C@H](O)[C@H]2O)cc1", "values": [{"measurement": "Glucose", "setting": "Rattus norvegicus [1]", "value": 2.6, "unit": "mg/day"}, {"measurement": "Inhibition", "setting": "Rattus norvegicus [2]", "value": 30, "unit": "%"}]}
{"smiles": "CSc1ccc(Cc2c(C(F)(F)F)n[nH]c2O)cc1", "values": [{"measurement": "Glucose", "setting": "Rattus norvegicus [1]", "value": 0, "unit": "mg/day"}, {"measurement": "inhibition", "setting": "Rattus norvegicus [3]", "value": "inactive"}]}
{"smiles": "CCc1ccc(Cc2c(C(F)(F)F)n[nH]c2O[C@@H]2O[C@H](CO)[C@@H](O)[C@H](O)[C@H]2O)cc1", "values": [{"measurement": "Glucose", "setting": "Rattus norvegicus [1]", "value": 63, "unit": "mg/day"}, {"measurement": "Inhibition", "setting": "Rattus norvegicus [4]", "value": 84, "unit": "%"}]}
